This note sets out measurements from US9448243B2, “Weak affinity chromatography” (priority 2013, dated 2016).

Test [1] addresses human serum albumin (HSA) (Homo sapiens, UniProt P02768). Kind of test: Weak affinity chromatography of steroids on HSA column. The test is classed as binding. As to conditions: for Kd: Column D, HSA 99% purity column; for k′ (capacity factor), Column D: HSA 99% purity, 118 mg/g silica, 20° C. How it is done: (§1) Four columns were prepared, a blank diol-silica column (column A) having no binding ligands and 3 columns (columns B, C, D) loaded with albumin as the binding ligand. Column B was a silica packed column (7 μm, 300 Å porosity) loaded with 96% purity bovine serum albumin (BSA) at a concentration of 66 mg of BSA per gram of silica. Column C was a silica packed column (7 μm, 300 Å porosity) loaded with 99% purity bovine serum albumin (BSA) at a concentration of 77 mg of BSA per gram of silica. Column D was a silica packed column (7 μm, 300 Å porosity) loaded with 99% purity human serum albumin (HSA) at a concentration of 118 mg of HSA per gram of silica. All four column dimensions were 2.1×50 mm stainless steel. Immobilization of the ligands was performed batchwise with periodate activation. 0.5 g of diol-silica was used with 5 ml of H2O added. The silica was sonicated for 2 minutes, and 0.5 g of periodic acid was added to convert the diol groups to aldehyde-groups. After 2 hours of mixing, the aldehyde-silica was washed with 100 mM phosphate, pH 7.0. 5 ml of the respective ligand in 100 mM phosphate buffer, pH 7.0, was prepared. Ligand concentration was 10 mg/ml. 250 μl NaCNBH3, concentration of 0.1 mg/ml, was added. Coupling time was 40 hours at room temperature (22° C.) on mixing table.
(§2) The system comprised the columns used in an Agilent 1200-LC-MS system. The steroids were all dissolved in ethanol at a concentration of 0.05 μg/μl. 2 μl samples were run in duplicate. Solvent buffers used included phosphate buffered saline (PBS) at pH 7.4 and 5 mM ammonium-acetate (Am-Ac) salt, pH 6.9. Column temperature was 20° C. with a flow rate of 0.400 ml/min. Detection included the use of UV diode-array detector (DAD) at 237 nm.
(§3) The columns were tested with the PBS buffer and the Am-Ac listed above. The capacity factor (k′) and dissociation constant (Kd) were determined as set forth in U.S. Pat. No. 4,879,247 issued on Nov. 7, 1989 to Sten Ohlson, which is hereby incorporated by reference in its entirety.

The target in test [2] is bovine serum albumin (BSA) (Bos taurus, UniProt P02769). Kind of test: Weak affinity chromatography of steroids on BSA columns (columns B, C). The test is classed as binding. The note with it: for k′ (capacity factor), Column B: 66 mg/g silica; for k′ (capacity factor), Column B / k′ (capacity factor), Column C: 20° C.; for k′ (capacity factor), Column C: 77 mg/g silica. How it is done: as §1, §2, §3

The mark [3] stands for this setting: Column B, 5 mM Am-Ac buffer pH 6.9, BSA 96% purity.
[4] abbreviates: Column B, PBS buffer pH 7.4, BSA 96% purity.
[5] abbreviates: Column C, 5 mM Am-Ac buffer pH 6.9, BSA 99% purity.
Where [6] appears, read: Column C, PBS buffer pH 7.4, BSA 99% purity.

Sequence of bovine serum albumin (BSA) (P02769 25-607): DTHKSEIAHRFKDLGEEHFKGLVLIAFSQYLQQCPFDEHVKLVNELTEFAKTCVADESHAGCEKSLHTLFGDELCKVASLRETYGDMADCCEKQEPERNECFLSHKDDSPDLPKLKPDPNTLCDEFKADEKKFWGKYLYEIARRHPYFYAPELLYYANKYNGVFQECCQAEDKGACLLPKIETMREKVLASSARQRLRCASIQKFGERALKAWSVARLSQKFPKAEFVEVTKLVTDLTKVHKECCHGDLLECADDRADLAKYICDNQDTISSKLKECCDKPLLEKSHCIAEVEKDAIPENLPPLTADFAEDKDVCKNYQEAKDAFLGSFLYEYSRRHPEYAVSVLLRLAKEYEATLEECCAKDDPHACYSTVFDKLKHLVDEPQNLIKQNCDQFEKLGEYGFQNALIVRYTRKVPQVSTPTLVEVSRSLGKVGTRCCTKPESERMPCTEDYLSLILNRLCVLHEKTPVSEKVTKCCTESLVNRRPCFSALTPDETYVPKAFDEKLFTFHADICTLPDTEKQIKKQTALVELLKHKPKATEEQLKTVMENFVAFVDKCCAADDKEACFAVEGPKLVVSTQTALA
Sequence of human serum albumin (HSA) (P02768 25-609): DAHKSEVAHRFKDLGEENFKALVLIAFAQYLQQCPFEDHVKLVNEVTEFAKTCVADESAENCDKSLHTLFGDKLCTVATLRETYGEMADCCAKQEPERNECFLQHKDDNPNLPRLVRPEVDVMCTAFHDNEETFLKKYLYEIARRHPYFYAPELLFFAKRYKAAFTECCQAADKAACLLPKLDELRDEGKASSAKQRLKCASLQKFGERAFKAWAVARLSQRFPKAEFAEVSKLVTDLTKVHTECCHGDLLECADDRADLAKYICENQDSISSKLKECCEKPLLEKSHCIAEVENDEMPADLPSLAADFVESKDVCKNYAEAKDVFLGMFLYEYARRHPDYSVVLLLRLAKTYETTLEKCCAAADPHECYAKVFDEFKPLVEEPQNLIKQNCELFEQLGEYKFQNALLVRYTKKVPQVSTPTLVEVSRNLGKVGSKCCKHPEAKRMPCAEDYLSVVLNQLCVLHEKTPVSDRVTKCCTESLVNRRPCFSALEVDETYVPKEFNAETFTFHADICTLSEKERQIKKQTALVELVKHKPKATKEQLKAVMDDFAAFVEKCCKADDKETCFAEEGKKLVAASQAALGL

With `C[C@]12C=CC(=O)C=C1CC[C@@H]1[C@@H]2[C@@H](O)C[C@@]2(C)[C@H]1CC[C@]2(O)C(=O)CO` [Prednisolone, prednisolone], the equilibrium dissociation constant (Kd) – broadly, the equilibrium constant for the complex coming apart – in test [1] (5 mM Am-Ac buffer pH 6.9) is 596 µM; in test [1] (PBS buffer pH 7.4), 602 µM; in test [2] (setting [3]), 257 µM; in test [2] (setting [4]) it was 230 µM; in test [2] (setting [5]), 227 µM; in test [2] (setting [6]), 216 µM.

With `C[C@]12C=CC(=O)C=C1CC[C@@H]1[C@@H]2C(=O)C[C@@]2(C)[C@H]1CC[C@]2(O)C(=O)CO` [Prednisone, prednisone], the “k′ (capacity factor), Column D” value in test [1] (5 mM Am-Ac buffer pH 6.9) was 1.78; in test [1] (PBS buffer pH 7.4) it was 1.74. Moreover, the Kd in test [1] (5 mM Am-Ac buffer pH 6.9) was determined as 523 µM; in test [1] (PBS buffer pH 7.4), 516 µM; in test [2] (setting [3]), 288 µM; in test [2] (setting [4]), 274 µM; in test [2] (setting [5]), 260 µM; in test [2] (setting [6]), 250 µM. The “k′ (capacity factor), Column B” value was found to be 1.01 in test [2] (5 mM Am-Ac buffer pH 6.9, BSA 96% purity) and 1.07 in test [2] (PBS buffer pH 7.4, BSA 96% purity). Moreover, the “k′ (capacity factor), Column C” value in test [2] (5 mM Am-Ac buffer pH 6.9, BSA 99% purity) was determined as 1.17; in test [2] (PBS buffer pH 7.4, BSA 99% purity), 1.23.
